The test system of one assay is GP2D (KRAS G12D) cells. Briefly: 2D cell viability assay (CellTiter-Glo). The conditions noted are these: GP2d, 96 h, 4 days. The class given is cell-based. A digest of the protocol:
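GP2D (KRAS G12D) cells, 1000/well in RPMI + 10% FBS, were plated onto compound (1:3 DMSO series) and grown 4 days at 37 °C, 5% CO2 in 2D. CellTiter-Glo luminescence was read; EC50 is the concentration giving 50% signal decrease, from sigmoidal fit.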

The target in another assay is GDP-loaded KRAS G12D (Homo sapiens (Human), UniProt P01116, G12D). Briefly: KRAS G12D (GDP) biochemical assay (TR-FRET probe displacement). Type of assay: binding. The conditions noted are these: 2 hours. An outline of the steps:
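Compound pre-incubated 30 min with GDP-loaded KRAS G12D in 50 mM Hepes pH 7.4, 150 mM NaCl, 5 mM MgCl2, 0.005% Tween-20, then Eu-streptavidin and TR-FRET probe added. After 2 h at room temperature, TR-FRET ratio read; IC50 is 50% ratio decrease, sigmoidal fit.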

Each structure is given as a SMILES string. Some results are limits rather than exact numbers.

Chain of GDP-loaded KRAS G12D (P01116-2 other isoform, or with tags, fused parts or gaps G12D): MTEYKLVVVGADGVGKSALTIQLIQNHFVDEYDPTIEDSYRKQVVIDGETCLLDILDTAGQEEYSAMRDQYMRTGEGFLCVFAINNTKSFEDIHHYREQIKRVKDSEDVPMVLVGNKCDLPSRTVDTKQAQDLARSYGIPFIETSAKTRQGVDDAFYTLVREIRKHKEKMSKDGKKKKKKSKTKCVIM

In the assay with GP2D (KRAS G12D) cells, `C#Cc1c(F)ccc2cccc(-c3nc4c5c(nc(OCC6(CN7CCC(OC(F)(F)F)CC7)CC6)nc5c3F)N3C[C@H]5CC[C@H](N5)[C@H]3CCC4)c12` [Example 127, (6aR,7S,10R)-2-(8-ethynyl-7-fluoronaphthalen-1-yl)-1-fluoro-13-((1-((4-(trifluoromethoxy)piperidin-1-yl)methyl)cyclopropyl)methoxy)-5,6,6a,7,8,9,10,11-octahydro-4H-3,11a,12,14,15-pentaaza-7,10-methanocyclohepta[4,5]cycloocta[1,2,3-de]naphthalene] came in with a concentration for a half-maximal effect (EC50) of 88.9 nM. On GDP-loaded KRAS G12D, the IC50 is 1.6 nM.
For `C#Cc1c(F)ccc2cc(O)cc(-c3nc4c5c(nc(OC[C@@]67CCCN6C[C@H](OC(C(F)(F)F)(C(F)(F)F)C(F)(F)F)C7)nc5c3F)N3C[C@H]5CC[C@H](N5)[C@H]3CC4)c12` [Example 129, 5-ethynyl-6-fluoro-4-((5aR,6S,9R)-1-fluoro-12-((trans-2-((1,1,1,3,3,3-hexafluoro-2-(trifluoromethyl)propan-2-yl)oxy)tetrahydro-1H-pyrrolizin-7a(5H)-yl)methoxy)-4,5,5a,6,7,8,9,10-octahydro-3,10a,11,13,14-pentaaza-6,9-methanonaphtho[1,8-ab]heptalen-2-yl)naphthalen-2-ol], in that order: 13.3 nM and 2.7 nM.
In the assay on GP2D (KRAS G12D) cells, `C#Cc1c(F)ccc2cccc(-c3nc4c5c(nc(OC[C@@]67CCCN6C[C@H](OC(C(F)(F)F)(C(F)(F)F)C(F)(F)F)C7)nc5c3F)N3C[C@H]5CC[C@H](N5)[C@H]3CC4)c12` [Example 130, (5aR,6S,9R)-2-(8-ethynyl-7-fluoronaphthalen-1-yl)-1-fluoro-12-((trans-2-((1,1,1,3,3,3-hexafluoro-2-(trifluoromethyl)propan-2-yl)oxy)tetrahydro-1H-pyrrolizin-7a(5H)-yl)methoxy)-4,5,5a,6,7,8,9,10-octahydro-3,10a,11,13,14-pentaaza-6,9-methanonaphtho[1,8-ab]heptalene] came in with an EC50 of 100 nM. The concentration for half-maximal inhibition (IC50) at GDP-loaded KRAS G12D is 100 nM.
Consider `CCc1c(F)ccc2cccc(-c3nc4c5c(nc(OC[C@@]67CCCN6C[C@H](F)C7)nc5c3F)N3C[C@H]5CC[C@H](N5)[C@@H]3[C@@H](C)C4)c12` [Example 131, (5S,5aS,6S,9R)-2-(8-ethyl-7-fluoronaphthalen-1-yl)-1-fluoro-12-(((2R,7aS)-2-fluorotetrahydro-1H-pyrrolizin-7a(5H)-yl)methoxy)-5-methyl-4,5,5a,6,7,8,9,10-octahydro-3,10a,11,13,14-pentaaza-6,9-methanonaphtho[1,8-ab]heptalene], for which a half-maximal response with GP2D (KRAS G12D) cells (EC50) required 100 nM. This compound returned an IC50 at GDP-loaded KRAS G12D of 55.3 nM.
Take `C#Cc1c(F)ccc2cccc(-c3nc4c5c(nc(OCC6(CN7CCC8(CC7)CC8(F)F)CC6)nc5c3F)N3C[C@H]5CC[C@H](N5)[C@@H]3[C@@H](C)C4)c12` [Example 136, (5S,5aS,6S,9R)-12-((1-((1,1-difluoro-6-azaspiro[2.5]octan-6-yl)methyl)cyclopropyl)methoxy)-2-(8-ethynyl-7-fluoronaphthalen-1-yl)-1-fluoro-5-methyl-4,5,5a,6,7,8,9,10-octahydro-3,10a,11,13,14-pentaaza-6,9-methanonaphtho[1,8-ab]heptalene]: the EC50 in the assay on GP2D (KRAS G12D) cells amounted to 100 nM. Further, the IC50 on GDP-loaded KRAS G12D stood at 17.1 nM.
With `C#Cc1c(F)ccc2cccc(-c3nc4c5c(nc(OCC67CCCN6C[C@H](OC(F)(F)F)C7)nc5c3F)N3C[C@H]5CC[C@H](N5)[C@H]3CC4)c12` (stereo partly drawn) [Example 137, (5aR,6S,9R)-2-(8-ethynyl-7-fluoronaphthalen-1-yl)-1-fluoro-12-((cis-2-(trifluoromethoxy)tetrahydro-1H-pyrrolizin-7a(5H)-yl)methoxy)-4,5,5a,6,7,8,9,1O-octahydro-3,10a,11,13,14-pentaaza-6,9-methanonaphtho[1,8-ab]heptalene], a half-maximal response in the assay on GP2D (KRAS G12D) cells (EC50) required 100 nM. On GDP-loaded KRAS G12D, this compound displayed a concentration for half-maximal inhibition (IC50) of 24.5 nM.
Consider `C#Cc1c(F)ccc2cc(O)cc(-c3nc4c5c(nc(OCC67CCCN6C[C@H](OC(F)(F)F)C7)nc5c3F)N3C[C@H]5CC[C@H](N5)[C@H]3CC4)c12` (stereo partly drawn) [Example 138, 5-ethynyl-6-fluoro-4-((5aR,6S,9R)-1-fluoro-12-((cis-2-(trifluoromethoxy)tetrahydro-1H-pyrrolizin-7a(5H)-yl)methoxy)-4,5,5a,6,7,8,9,10-octahydro-3,10a,11,13,14-pentaaza-6,9-methanonaphtho[1,8-ab]heptalen-2-yl)naphthalen-2-ol], for which the half-maximal effective concentration (EC50) with GP2D (KRAS G12D) cells is 17.2 nM. This compound gave an IC50 at GDP-loaded KRAS G12D of 0.3 nM.
Consider `C#Cc1c(F)ccc2cc(O)cc(-c3nc4c5c(nc(OC[C@]67CCCN6C[C@H](OC(C(F)(F)F)(C(F)(F)F)C(F)(F)F)C7)nc5c3F)N3C[C@H]5CC[C@H](N5)[C@H]3CC4)c12` [Example 144, 5-ethynyl-6-fluoro-4-((5aR,6S,9R)-1-fluoro-12-((cis-2-((1,1,1,3,3,3-hexafluoro-2-(trifluoromethyl)propan-2-yl)oxy)tetrahydro-1H-pyrrolizin-7a(5H)-yl)methoxy)-4,5,5a,6,7,8,9,10-octahydro-3,10a,11,13,14-pentaaza-6,9-methanonaphtho[1,8-ab]heptalen-2-yl)naphthalen-2-ol], for which, in the assay with GP2D (KRAS G12D) cells, the response was half-maximal at 100 nM (EC50). The compound further showed an IC50 on GDP-loaded KRAS G12D of 83.1 nM.
The matching figures for `C#Cc1c(F)ccc2cccc(-c3nc4c5c(nc(OC[C@]67CCCN6C[C@H](OC(C(F)(F)F)(C(F)(F)F)C(F)(F)F)C7)nc5c3F)N3C[C@H]5CC[C@H](N5)[C@H]3CC4)c12` [Example 145, (5aR,6S,9R)-2-(8-ethynyl-7-fluoronaphthalen-1-yl)-1-fluoro-12-((cis-2-((1,1,1,3,3,3-hexafluoro-2-(trifluoromethyl)propan-2-yl)oxy)tetrahydro-1H-pyrrolizin-7a(5H)-yl)methoxy)-4,5,5a,6,7,8,9,10-octahydro-3,10a,11,13,14-pentaaza-6,9-methanonaphtho[1,8-ab]heptalene]: 100 nM and 100 nM.
The matching figures for `C#Cc1c(F)ccc2cccc(-c3nc4c5c(nc(OCC6(CN7CCC(C(F)(F)F)CC7)CC6)nc5c3F)N3C[C@H]5CC[C@H](N5)[C@@H]3[C@@H](C)C4)c12` [Example 146, (5S,5aS,6S,9R)-2-(8-ethynyl-7-fluoronaphthalen-1-yl)-1-fluoro-5-methyl-12-((1-((4-(trifluoromethyl)piperidin-1-yl)methyl)cyclopropyl)methoxy)-4,5,5a,6,7,8,9,10-octahydro-3,10a,11,13,14-pentaaza-6,9-methanonaphtho[1,8-ab]heptalene]: 100 nM and 15.6 nM.
Regarding `C#Cc1c(F)ccc2cc(O)cc(-c3nc4c5c(nc(OC[C@@]67CCCN6[C@H](COc6cc(C(F)(F)F)ncn6)CC7)nc5c3F)N3C[C@H]5CC[C@H](N5)[C@H]3CC4)c12` [Example 149, 5-ethynyl-6-fluoro-4-((5aR,6S,9R)-1-fluoro-12-(((3S,7aS)-3-(((6-(trifluoromethyl)pyrimidin-4-yl)oxy)methyl)tetrahydro-1H-pyrrolizin-7a(5H)-yl)methoxy)-4,5,5a,6,7,8,9,10-octahydro-3,10a,11,13,14-pentaaza-6,9-methanonaphtho[1,8-ab]heptalen-2-yl)naphthalen-2-ol], in the assay with GP2D (KRAS G12D) cells, the EC50 stood at 0.3 nM. Also, the IC50 on GDP-loaded KRAS G12D was under 0.1 nM.
The matching figures for `C#Cc1c(F)ccc2cccc(-c3nc4c5c(nc(OC[C@@]67CCCN6[C@H](COC(C(F)(F)F)C(F)(F)F)CC7)nc5c3F)N3C[C@H]5CC[C@H](N5)[C@H]3CC4)c12` [Example 150, (5aR,6S,9R)-2-(8-ethynyl-7-fluoronaphthalen-1-yl)-1-fluoro-12-(((3S,7aS)-3-(((1,1,1,3,3,3-hexafluoropropan-2-yl)oxy)methyl)tetrahydro-1H-pyrrolizin-7a(5H)-yl)methoxy)-4,5,5a,6,7,8,9,10-octahydro-3,10a,11,13,14-pentaaza-6,9-methanonaphtho[1,8-ab]heptalene]: 47.2 nM and 0.2 nM.
In the case of `C#Cc1c(F)ccc2cccc(-c3nc4c5c(nc(OC[C@@]67CCCN6[C@H](COc6ccnc(C(F)(F)F)n6)CC7)nc5c3F)N3C[C@H]5CC[C@H](N5)[C@H]3CC4)c12` [Example 151, (5aR,6S,9R)-2-(8-ethynyl-7-fluoronaphthalen-1-yl)-1-fluoro-12-(((3S,7aS)-3-(((2-(trifluoromethyl)pyrimidin-4-yl)oxy)methyl)tetrahydro-1H-pyrrolizin-7a(5H)-yl)methoxy)-4,5,5a,6,7,8,9,10-octahydro-3,10a,11,13,14-pentaaza-6,9-methanonaphtho[1,8-ab]heptalene], the EC50 in the assay with GP2D (KRAS G12D) cells is 5 nM. Moreover, at GDP-loaded KRAS G12D, the IC50 was 0.1 nM.
`C#Cc1c(F)ccc2cccc(-c3nc4c5c(nc(OC[C@@]67CCCN6[C@H](COc6cc(C(F)(F)F)ncn6)CC7)nc5c3F)N3C[C@H]5CC[C@H](N5)[C@H]3CC4)c12` [Example 152, (5aR, 6S, 9R)-2-(8-ethynyl-7-fluoronaphthalen-1-yl)-1-fluoro-12-(((3S,7aS)-3-(((6-(trifluoromethyl)pyrimidin-4-yl)oxy)methyl)tetrahydro-1H-pyrrolizin-7a(5H)-yl)methoxy)-4,5,5a,6,7,8,9,10-octahydro-3,10a,11,13,14-pentaaza-6,9-methanonaphtho[1,8-ab]heptalene] gave an EC50 in the assay with GP2D (KRAS G12D) cells of 5.4 nM. The IC50 at GDP-loaded KRAS G12D stood at 0.1 nM.

Source of the values: patent US20230339981A1, “KRAS G12D MODULATING COMPOUNDS” (priority 2022, published 2023).
